Assays:
[1] = molecular target: A-Raf kinase (SEQ. ID No: 1) (Homo sapiens (Human), UniProt P10398, Y301D/Y302D); experiment: Biochemical Assay for A-Raf (2); conditions: Table J, biochemical assay (2); read-out: ARAF (2)
Experimental: Biochemical Assay for A-Raf (2)
Activity of A-Raf kinase (SEQ. ID No: 1) was determined spectroscopically using a coupled pyruvate kinase/lactate dehydrogenase assay that continuously monitors the ATP hydrolysis-dependent oxidation of NADH (e.g., Schindler et al., Science, 2000, 289, 1938-1942). Assays were conducted in 384-well plates (25 μL final volume) using 20 nM A-Raf (Eurofins), 1.5 units pyruvate kinase, 2.1 units lactate dehydrogenase, 1 mM phosphoenol pyruvate, 0.7 mM NADH, 100 nM MEK (SignalChem), and 1 mM ATP in assay buffer (100 mM Tris, pH 7.5, 15 mM MgCl2, 0.5 mM DTT, 0.1% octyl-glucoside, 0.002% (w/v) BSA, and 0.002% Triton X-100). Inhibition of A-Raf was measured by adding serial diluted test compound (final assay concentration of 1% DMSO). A decrease in absorption at 340 nm was monitored hourly for 4 h at 30° C. on a multi-mode microplate reader (BioTek). The reaction rate was calculated using the 3 to 4 h time frame. The reaction rate at each concentration of compound was converted to percent inhibition using controls (i.e., reaction with no test compound and reaction with a known inhibitor) and IC50 values were calculated by fitting a four-parameter sigmoidal curve to the data using Prism (GraphPad software).

WM3928 cells = experiment: WM3928 Cell Proliferation Assay (2); format: cell-based
[2] = molecular target: B-Raf kinase (SEQ. ID NO: 2) (Homo sapiens (Human), UniProt P15056); experiment: Biochemical Assay for B-Raf (2); conditions: Table J, biochemical assay (2); read-out: BRAF (2)
B-Raf kinase (SEQ. ID NO: 2), sequence (P15056 416-766): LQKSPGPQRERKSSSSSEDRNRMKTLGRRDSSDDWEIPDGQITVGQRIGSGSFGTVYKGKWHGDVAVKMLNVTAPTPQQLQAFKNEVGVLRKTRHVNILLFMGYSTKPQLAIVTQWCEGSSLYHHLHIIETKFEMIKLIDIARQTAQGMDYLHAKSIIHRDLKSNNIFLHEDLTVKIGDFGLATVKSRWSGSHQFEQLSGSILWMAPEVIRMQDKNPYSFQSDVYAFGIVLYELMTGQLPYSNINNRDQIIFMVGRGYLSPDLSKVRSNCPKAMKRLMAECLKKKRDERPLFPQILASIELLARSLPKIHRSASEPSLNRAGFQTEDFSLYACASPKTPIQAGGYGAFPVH
Method in brief: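 Coupled pyruvate kinase/lactate dehydrogenase read-out of NADH oxidation at 340 nm, using 2 nM B-Raf, 50 nM MEK and 1 mM ATP in Tris pH 7.5 with 1% DMSO. Absorbance was read hourly for 4 h at 30 °C and rates taken over 2–3 h. IC50 came from a four-parameter sigmoidal fit.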

[3] = molecular target: C-Raf kinase (SEQ. ID NO: 3) (Homo sapiens (Human), UniProt P04049, Y340D/Y341D); experiment: Biochemical Assay for C-Raf (2); conditions: Table J, biochemical assay (2); read-out: CRAF (2)
C-Raf kinase (SEQ. ID NO: 3), sequence (P04049 307-648 Y340D/Y341D): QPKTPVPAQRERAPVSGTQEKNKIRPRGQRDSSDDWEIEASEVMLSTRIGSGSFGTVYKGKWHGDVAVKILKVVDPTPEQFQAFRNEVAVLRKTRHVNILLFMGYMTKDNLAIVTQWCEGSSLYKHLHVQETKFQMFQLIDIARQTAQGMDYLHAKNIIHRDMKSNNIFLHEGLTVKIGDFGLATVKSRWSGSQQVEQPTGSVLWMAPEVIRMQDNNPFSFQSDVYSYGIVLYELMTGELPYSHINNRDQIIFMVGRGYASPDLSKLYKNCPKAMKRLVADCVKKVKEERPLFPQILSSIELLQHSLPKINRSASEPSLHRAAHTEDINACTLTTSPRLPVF
Method in brief: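 Coupled PK/LDH assay following NADH oxidation at 340 nm, read hourly for 4 h at 30 °C with 3.84 nM C-Raf, 50 nM MEK and 1 mM ATP in Tris pH 7.5, 15 mM MgCl2, 1% DMSO. Rates over 2–3 h converted to % inhibition against no-compound and known-inhibitor controls; IC50 from four-parameter sigmoidal fit.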

A-Raf kinase (SEQ. ID No: 1), sequence (P10398 other isoform, or with tags, fused parts or gaps Y301D (already in the parent)/Y302D (already in the parent)): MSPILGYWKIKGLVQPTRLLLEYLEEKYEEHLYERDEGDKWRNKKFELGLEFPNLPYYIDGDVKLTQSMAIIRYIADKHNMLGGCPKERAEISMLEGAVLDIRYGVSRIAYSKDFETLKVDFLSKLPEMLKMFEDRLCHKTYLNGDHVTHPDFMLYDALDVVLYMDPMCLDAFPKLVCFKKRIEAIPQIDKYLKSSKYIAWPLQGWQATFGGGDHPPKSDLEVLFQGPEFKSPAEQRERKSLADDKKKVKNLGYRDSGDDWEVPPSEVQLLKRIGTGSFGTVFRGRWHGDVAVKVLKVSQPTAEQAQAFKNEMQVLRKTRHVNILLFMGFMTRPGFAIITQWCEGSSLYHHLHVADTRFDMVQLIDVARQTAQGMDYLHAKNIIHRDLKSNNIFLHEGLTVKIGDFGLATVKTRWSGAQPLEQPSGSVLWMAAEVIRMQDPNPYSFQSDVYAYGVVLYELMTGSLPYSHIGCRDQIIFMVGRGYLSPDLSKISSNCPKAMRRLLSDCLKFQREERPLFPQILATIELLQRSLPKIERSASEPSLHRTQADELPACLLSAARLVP

Compound | IC50 [1] | IC50 (WM3928 cells) | IC50 [2] | IC50 [3]
CNC(=O)c1cc(-c2cc(-c3cc(NC(=O)c4ccnc(C(C)(C)F)c4)ccc3Cl)ccn2)ccn1 [Example 485] | 1 to 10 µM | ≤ 0.1 µM | 0.1 to 0.5 µM | ≤ 0.1 µM
Cc1ccc(NC(=O)c2ccnc(C(C)(C)F)c2)cc1-c1cnnc(-c2ccnc(C(N)=O)c2)c1 [Example 486] | 1 to 10 µM | 0.1 to 0.5 µM | 0.1 to 0.5 µM | ≤ 0.1 µM
CNC(=O)c1cc(-c2cc(-c3cc(NC(=O)c4ccnc(C5(F)CC5)c4)ccc3C)ccn2)ccn1 [Example 487] | 0.1 to 0.5 µM | ≤ 0.1 µM | ≤ 0.1 µM | ≤ 0.1 µM
Cc1ccc(NC(=O)c2ccnc(C(C)(C)F)c2)cc1-c1cc(-c2ccnc(C(N)=O)c2)ncn1 [Example 488] | 0.5 to 1 µM | 0.1 to 0.5 µM | ≤ 0.1 µM | ≤ 0.1 µM
[2H]C([2H])([2H])NC(=O)c1cc(-c2cc(-c3cc(NC(=O)c4ccnc(C(C)(C)F)c4)ccc3C)ccn2)ccn1 [Example 489] | 0.1 to 0.5 µM | ≤ 0.1 µM | ≤ 0.1 µM | ≤ 0.1 µM
Cc1ccc(NC(=O)c2ccnc(C(C)(C)F)c2)cc1-c1cc(-c2ccnc(C(N)=O)c2)ncc1F [Example 490] | 1 to 10 µM | 0.1 to 0.5 µM | 0.1 to 0.5 µM | ≤ 0.1 µM
CC(C)(F)c1cc(C(=O)Nc2ccc(F)c(-c3ccnc(-c4ccnc(C(N)=O)c4)c3)c2)ccn1 [Example 491] | 1 to 10 µM | 0.5 to 1 µM | ≤ 0.1 µM | ≤ 0.1 µM
CNC(=O)c1cc(-c2cc(-c3cc(NC(=O)c4cnnc(C(C)(F)F)c4)ccc3C)ccn2)ccn1 [Example 492] | 1 to 10 µM | 0.1 to 0.5 µM | ≤ 0.1 µM | ≤ 0.1 µM
[2H]C([2H])([2H])NC(=O)c1cc(-c2cc(-c3cc(NC(=O)c4ccnc(C(C)(C)F)c4)ccc3C)cc(C)n2)ccn1 [Example 493] | 1 to 10 µM | ≤ 0.1 µM | 0.1 to 0.5 µM | ≤ 0.1 µM
CNC(=O)c1cc(-c2cc(-c3cc(NC(=O)c4ccnc(C(C)(C)F)n4)ccc3C)ccn2)ccn1 [Example 494] | 1 to 10 µM | 0.5 to 1 µM | 0.1 to 0.5 µM | ≤ 0.1 µM
CNC(=O)c1cc(-c2cc(-c3cc(NC(=O)c4cnnc(C(C)(C)F)c4)ccc3C)ccn2)ccn1 [Example 495] | 0.5 to 1 µM | ≤ 0.1 µM | ≤ 0.1 µM | ≤ 0.1 µM
CNC(=O)c1cc(-c2cc(-c3cc(NC(=O)c4ccnc(C5(F)CC5)c4)ccc3C)cc(C)n2)ccn1 [Example 496] | 1 to 10 µM | ≤ 0.1 µM | 0.1 to 0.5 µM | ≤ 0.1 µM
CNC(=O)c1cc(-c2cc(-c3cc(NC(=O)c4ccnc(C(C)(C)F)c4)c(F)cc3C)ccn2)ccn1 [Example 497] | 1 to 10 µM | 0.1 to 0.5 µM | 0.1 to 0.5 µM | 0.1 to 0.5 µM
[2H]C([2H])([2H])NC(=O)c1cc(-c2cc(-c3cc(NC(=O)c4ccnc(C5(F)CC5)c4)ccc3C)cc(C)n2)ccn1 [Example 498] | 1 to 10 µM | ≤ 0.1 µM | 0.1 to 0.5 µM | 0.1 to 0.5 µM
CNC(=O)c1cc(-c2cc(-c3cc(NC(=O)c4ccnc(C(C)(C)F)c4)ncc3C)ccn2)ccn1 [Example 499] | 1 to 10 µM | 0.1 to 0.5 µM | 0.1 to 0.5 µM | ≤ 0.1 µM
Cc1ccc(NC(=O)c2cn(C)nc2C(F)(F)F)cc1-c1cncc(-c2ccnc(NC(=O)C3CC3)c2)c1 [Example 500] | 1 to 10 µM | 0.5 to 1 µM | ≤ 0.1 µM | ≤ 0.1 µM
Cc1ccc(NC(=O)c2ccc(C(F)(F)F)cc2)cc1-c1ccnc(-c2ccnc(NC(=O)C3CC3)c2)c1 [Example 501] | 1 to 10 µM | 0.1 to 0.5 µM | ≤ 0.1 µM | ≤ 0.1 µM
Cc1ccc(NC(=O)c2cccc(C(F)(F)F)c2)cc1-c1ccnc(-c2ccnc(NC(=O)C3CC3)c2)c1 [Example 502] | 0.1 to 0.5 µM | ≤ 0.1 µM | ≤ 0.1 µM | ≤ 0.1 µM
Cc1ccc(NC(=O)c2cc(C(F)(F)F)ccc2F)cc1-c1ccnc(-c2ccnc(NC(=O)C3CC3)c2)c1 [Example 503] | 0.1 to 0.5 µM | ≤ 0.1 µM | ≤ 0.1 µM | ≤ 0.1 µM

Reference: US12319655B2, “RAF kinase inhibitors and methods of use thereof” (Deciphera Pharmaceuticals, LLC, priority 2021, dated 2025)
